From article PMC6934184, “Selective DNA-PKcs inhibition extends the therapeutic index of localized radiotherapy and chemotherapy” (The Journal of Clinical Investigation, 2019)

Target: T1, MAP4K1 (HPK1) (Homo sapiens, UniProt Q92918)
T1 construct: purchased Thermo Fisher Scientific (Life Technologies) SelectScreen
Assay: SelectScreen LanthaScreen
Type: binding
Conditions: read-out: % displacement
How it was run: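 SelectScreen broad panel; activity (Z'LYTE, Adapta) plus binding formats. ATP: Km app for CSF1R Z'LYTE; 10 for CAMK1 Adapta. Readout = % per kinase.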

T1 sequence (Q92918 whole entry): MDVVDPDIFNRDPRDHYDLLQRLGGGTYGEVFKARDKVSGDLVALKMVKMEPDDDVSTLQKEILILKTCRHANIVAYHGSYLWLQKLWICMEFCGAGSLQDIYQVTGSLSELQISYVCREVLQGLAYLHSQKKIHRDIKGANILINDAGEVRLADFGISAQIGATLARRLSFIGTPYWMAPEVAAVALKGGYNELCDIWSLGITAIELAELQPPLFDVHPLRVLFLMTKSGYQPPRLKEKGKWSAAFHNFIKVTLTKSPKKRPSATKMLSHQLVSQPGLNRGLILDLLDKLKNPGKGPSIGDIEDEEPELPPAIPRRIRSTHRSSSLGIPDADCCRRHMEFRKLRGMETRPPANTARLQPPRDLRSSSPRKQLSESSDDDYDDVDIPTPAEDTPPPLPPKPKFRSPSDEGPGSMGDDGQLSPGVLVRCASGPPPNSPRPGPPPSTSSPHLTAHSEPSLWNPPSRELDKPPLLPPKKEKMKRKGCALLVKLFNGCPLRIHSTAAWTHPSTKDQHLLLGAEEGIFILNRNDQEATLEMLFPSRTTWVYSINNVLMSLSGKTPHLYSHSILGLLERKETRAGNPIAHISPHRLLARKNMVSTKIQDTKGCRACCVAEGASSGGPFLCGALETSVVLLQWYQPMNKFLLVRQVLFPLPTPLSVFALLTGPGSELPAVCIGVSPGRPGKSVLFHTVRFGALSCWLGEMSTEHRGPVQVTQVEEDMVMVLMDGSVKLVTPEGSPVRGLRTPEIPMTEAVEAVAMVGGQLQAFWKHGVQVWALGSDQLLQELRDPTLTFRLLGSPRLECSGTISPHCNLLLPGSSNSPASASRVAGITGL

`CN(C(=O)CN1CCOCC1)c1ccc2sc3c(-c4cccc5c(=O)cc(N6CC7CCC(C6)O7)oc45)cccc3c2c1` [NU5455] showed an inhibition at 1 µM of 1.6%.
